What all share (assay type): physicochemical
Series [1] can be described thus: STERC via bubble pressure tensiometry. The following applies: at the CMC.
Description: Dynamic surface tension reduction, i.e. surface tension reduction as a function of time, is measured by bubble pressure tensiometry using the maximum bubble pressure (MBP) method. When dynamic surface tension data obtained from MBP experiments is plotted as a function of surface age, fitting of the data to a first-order decay function as in Formula (III) enables one to obtain the Surface Tension Equilibration Rate Constant (STERC) for a given surfactant at a specific concentration.
Surface Tension Equilibration Rate Constant (STERC) is calculated according to Formula (III): γt=γeq+(γi−γeq)^−t/K (III) where: • γt=surface tension at time=t, in mN/m; • γeq=equilibrium surface tension, in mN/m; • γi=initial surface tension, in mN/m; • t=time, in ms; and • K=surface tension equilibration rate constant (STERC) in ms^−1.
Determination of STERC via Bubble Pressure Tensiometry. Dynamic surface tensions were determined on a Kruss BP100 Bubble Pressure Tensiometer, using a 0.256 mm OD silane-treated glass capillary submerged to a depth of 1.00 cm for testing and buoyancy compensated. […] The STERC as reported herein is determined at the CMC and is obtained by plotting the dynamic surface tension as a function of surface age and fitting the data to the equation below to obtain a first-order rate constant for reduction of surface tension from the initial value to the equilibrium value. […]
Series [2] can be described thus: Solubilization of 1% Spectrastat G2 Natural by solubilizer, Formulation Turbidity (FT). The following applies: 5% solubilizer, aqueous. The method, then:
(§1) Measurement of Turbidity via Nephelometric Turbidimetry. Clarity of solutions and formulations is reported as Aqueous Solution Turbidity (AST) or Formulation Turbidity (FT) measured in nephelometric turbidity units (NTU). Turbidity values were determined on an HF Scientific Micro 100 Benchtop Turbidity Meter operating at room temperature (23° C.±2° C.). Aqueous Solution Turbidity is an inherent property of a PGE composition when measured as specified at 5% in deionized water at 23±2° C.

Series [3] is described as follows: Critical Micelle Concentration (CMC) via equilibrium surface tensiometry. The following applies: pure water, 22° C.
Description: Determination of Critical Micelle Concentration (CMC) via Equilibrium Surface Tensiometry. […] Dipping distance for the plate was set to 3.00 mm prior to return to the surface within +/−0.01 mm for measurement of surface tension force. All tests were performed at 22° C.±0.2° C. For each surfactant a 1.00% stock solution in pure water was prepared and incrementally dosed into initially pure water to augment surfactant concentration while measuring surface tension after each concentration augmentation. Each surfactant was tested in duplicate runs at concentrations ranging from 0.001% to 0.500% of surfactant. The CMC value is taken at the intersection between the regression straight line of the linearly dependent region and the straight line passing through the plateau when surface tension is plotted as a function of concentration.
A short description of series [4]: Aqueous Solution Turbidity (AST) / water solubility and clarity of 5% and 10% aqueous solutions. The method, then: as §1

Consider Heptyl Glucoside [CE4], for which the “STERC at CMC” value in series [1] (22° C.) came out at 3226 ms^−1. The substance further showed an STERC in series [1] (unit printed s^−1) of 3226 s⁻¹. In series [2], the FT is given as 4.21 NTU. Besides, the CMC in series [3] stood at 0.0672 wt %. Further, the “AST @ 5%” value in series [4] (5% in deionized water, 23±2° C.) stood at 0.65 NTU. In series [4] (10% in deionized water), the “AST @ 10%” value is 1.2 NTU.

These data come from patent US12527732B2, “Biobased polyglyceryl esters and compositions comprising the same” (Inolex Investment Corporation, priority 2021, dated 2026).
